In PubChem BioAssay (NCI):
“And” between values parts separate entries of the source, which are not always exact repeats. Equal values may be shown once.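 A five-concentration, 48-hour dose response in 96-well plates underlies each endpoint, interpolated linearly between surrounding concentrations. GI50: concentration for 50% inhibition of growth. The concentration for full growth arrest is given as TGI.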

Columns and labels:
Test in all cases: DTP human tumour cell line panel, 48 h
A549 NSCLC = system: A549 NSCLC
NCI/ADR-RES ovarian = system: NCI/ADR-RES ovarian
TK-10 renal = system: TK-10 renal
A498 renal = system: A498 renal
SF-295 CNS = system: SF-295 CNS
786-0 renal = system: 786-0 renal
RXF 393 renal = system: RXF 393 renal
PC-3 prostate = system: PC-3 prostate
MALME-3M melanoma = system: MALME-3M melanoma
NCI-H460 lung = system: NCI-H460 lung

## C=C(CN1CCN(c2cccc(C(F)(F)F)n2)CC1)c1ccc(C(=O)Nc2ccccc2N)cc1
A549 NSCLC
  GI50: 3.33 µM and 0.39 µM
  TGI: > 100 µM
NCI/ADR-RES ovarian
  GI50: 0.641 µM and 0.4 µM
  TGI: > 100 µM
TK-10 renal
  TGI: > 100 µM and 35.4 µM
A498 renal
  GI50: 0.875 µM and 0.261 µM
SF-295 CNS
  GI50: 0.387 µM and 0.191 µM
786-0 renal
  GI50: 1.97 µM and 0.705 µM
  TGI: 70 µM and 14 µM
RXF 393 renal
  GI50: 0.672 µM and 2.12 µM
  TGI: 26.1 µM and > 100 µM
PC-3 prostate
  GI50: 0.42 µM and 0.484 µM
  TGI: > 100 µM
MALME-3M melanoma
  GI50: 1.06 µM and 0.338 µM
  TGI: > 100 µM and 28.2 µM
NCI-H460 lung
  GI50: 0.64 µM and 0.37 µM
  TGI: > 100 µM

## CNC(=O)c1ccc(N2C(=S)N(c3ccc(C#N)c(C(F)(F)F)c3)C(=O)C2(C)C)cc1F
A549 NSCLC
  GI50: 33.6 µM
  TGI: > 95.4 µM
NCI/ADR-RES ovarian
  GI50: 33.3 µM
  TGI: > 100 µM
TK-10 renal
  GI50: > 54.8 µM
  TGI: > 100 µM
A498 renal
  GI50: > 35.3 µM
  TGI: > 71 µM
SF-295 CNS
  GI50: 28.9 µM
  TGI: > 75.9 µM
786-0 renal
  GI50: > 44.2 µM
  TGI: > 73.5 µM
RXF 393 renal
  GI50: 35.8 µM
  TGI: > 66 µM
PC-3 prostate
  GI50: 30.3 µM
  TGI: > 100 µM
MALME-3M melanoma
  GI50: 20.9 µM
  TGI: > 82.1 µM
NCI-H460 lung
  GI50: 28.2 µM
  TGI: > 74.3 µM

## CCN(Cc1ccccc1)c1ccc(CO)c(Cl)c1
A549 NSCLC
  GI50: 2.18 µM
  TGI: 25.4 µM
NCI/ADR-RES ovarian
  GI50: 14.4 µM
  TGI: 56.8 µM
TK-10 renal
  GI50: 0.0649 µM
  TGI: 0.281 µM
A498 renal
  GI50: 0.042 µM
  TGI: 0.169 µM
SF-295 CNS
  GI50: 1 µM
  TGI: > 56 µM
786-0 renal
  GI50: 12 µM
  TGI: 39.3 µM
RXF 393 renal
  GI50: 6.01 µM
  TGI: > 49.7 µM
PC-3 prostate
  GI50: 18.2 µM
  TGI: > 53.6 µM
MALME-3M melanoma
  GI50: 28.6 µM
  TGI: > 82.6 µM
NCI-H460 lung
  GI50: 0.327 µM
  TGI: 13.9 µM

## CC(C)C[C@H](NC(=O)Cn1ccc(NCc2ccccc2)cc1=O)B(O)O
A549 NSCLC
  GI50: 5.15 µM
  TGI: > 100 µM
NCI/ADR-RES ovarian
  GI50: 17.8 µM
  TGI: > 100 µM
TK-10 renal
  GI50: 0.472 µM
  TGI: 5.23 µM
A498 renal
  GI50: 0.234 µM
  TGI: 1.59 µM
SF-295 CNS
  GI50: 2.62 µM
  TGI: 15.3 µM
786-0 renal
  GI50: 2.02 µM
  TGI: > 40.1 µM
RXF 393 renal
  GI50: 0.346 µM
  TGI: 1.31 µM
PC-3 prostate
  GI50: 5.86 µM
  TGI: 98.9 µM
MALME-3M melanoma
  GI50: 2.22 µM
  TGI: > 30 µM
NCI-H460 lung
  GI50: 6.19 µM
  TGI: 37.6 µM

## COc1cc2ncn(-c3cc(O[C@@H](C)c4ccccc4Cl)c(C(N)=O)s3)c2cc1OC
A549 NSCLC
  GI50: 1.45 µM
  TGI: > 25 µM
NCI/ADR-RES ovarian
  GI50: 0.429 µM
  TGI: > 25 µM
TK-10 renal
  GI50: 4.14 µM
  TGI: > 23.1 µM
A498 renal
  GI50: 1.08 µM
  TGI: 13.8 µM
SF-295 CNS
  GI50: 1.25 µM
  TGI: > 25 µM
786-0 renal
  GI50: 4.43 µM
  TGI: > 25 µM
RXF 393 renal
  GI50: 0.346 µM
  TGI: > 22.9 µM
PC-3 prostate
  GI50: 2.55 µM
  TGI: > 25 µM
MALME-3M melanoma
  GI50: 13.7 µM
  TGI: > 25 µM
NCI-H460 lung
  GI50: 0.949 µM
  TGI: > 25 µM

## O=c1cc(N2CCN(CCCCCOc3cc(O)c4c(=O)cc(-c5ccccc5)oc4c3)CC2)c2ccccc2o1
A549 NSCLC
  GI50: > 100 µM
  TGI: > 100 µM
NCI/ADR-RES ovarian
  GI50: 74.2 µM
  TGI: > 100 µM
TK-10 renal
  GI50: > 100 µM
  TGI: > 100 µM
A498 renal
  GI50: > 100 µM
  TGI: > 100 µM
SF-295 CNS
  GI50: > 100 µM
  TGI: > 100 µM
786-0 renal
  GI50: 6.92 µM
  TGI: > 100 µM
RXF 393 renal
  GI50: > 100 µM
  TGI: > 100 µM
PC-3 prostate
  GI50: 43.1 µM
  TGI: > 100 µM
MALME-3M melanoma
  GI50: 39.2 µM
  TGI: > 100 µM
NCI-H460 lung
  GI50: > 100 µM
  TGI: > 100 µM

## COc1ccc(-c2cc(-c3cccn3C)c(C#N)c(=O)[nH]2)cc1OC
A549 NSCLC
  GI50: > 100 µM
  TGI: > 100 µM
NCI/ADR-RES ovarian
  GI50: > 100 µM
  TGI: > 100 µM
TK-10 renal
  GI50: > 100 µM
  TGI: > 100 µM
A498 renal
  GI50: 56.6 µM
  TGI: > 100 µM
SF-295 CNS
  GI50: > 100 µM
  TGI: > 100 µM
786-0 renal
  GI50: > 100 µM
  TGI: > 100 µM
RXF 393 renal
  GI50: > 100 µM
  TGI: > 100 µM
PC-3 prostate
  GI50: > 100 µM
  TGI: > 100 µM
MALME-3M melanoma
  GI50: > 100 µM
  TGI: > 100 µM
NCI-H460 lung
  GI50: > 100 µM
  TGI: > 100 µM

## C/C(=N\Nc1cc(C)c2ccccc2n1)c1ccccn1
A549 NSCLC
  GI50: 0.0714 µM
  TGI: 1.17 µM
NCI/ADR-RES ovarian
  GI50: 0.0717 µM
  TGI: 1.42 µM
TK-10 renal
  TGI: 2.76 µM
A498 renal
  GI50: 0.284 µM
  TGI: 3.04 µM
SF-295 CNS
  TGI: 0.499 µM
786-0 renal
  GI50: 0.135 µM
  TGI: 1.27 µM
RXF 393 renal
  GI50: 0.29 µM
  TGI: 1.82 µM
PC-3 prostate
  GI50: 0.0821 µM
  TGI: 4.5 µM
MALME-3M melanoma
  GI50: 0.155 µM
  TGI: 1.49 µM
NCI-H460 lung
  GI50: < 0.0387 µM
  TGI: 1.17 µM

## CNC(=S)NC(=O)c1c(Cl)n(C(=O)OC(C)(C)C)c2ccccc12
A549 NSCLC
  GI50: 84.3 µM
  TGI: > 100 µM
NCI/ADR-RES ovarian
  GI50: 47.8 µM
  TGI: > 100 µM
TK-10 renal
  GI50: 97.5 µM
  TGI: > 100 µM
A498 renal
  GI50: 51.5 µM
  TGI: > 100 µM
SF-295 CNS
  GI50: 56.4 µM
  TGI: > 100 µM
786-0 renal
  GI50: 91.1 µM
  TGI: > 100 µM
RXF 393 renal
  GI50: 48.5 µM
  TGI: > 100 µM
PC-3 prostate
  GI50: 25.5 µM
  TGI: > 100 µM
MALME-3M melanoma
  GI50: > 100 µM
  TGI: > 100 µM
NCI-H460 lung
  GI50: 48.6 µM
  TGI: > 100 µM

## C=C1C(=O)O[C@H]2[C@H]1CC/C(COC(=O)c1cc3ccccc3o1)=C\CC[C@@]1(C)O[C@@H]21
A549 NSCLC
  GI50: 2.91 µM
  TGI: 12 µM
NCI/ADR-RES ovarian
  GI50: 2.59 µM
  TGI: 10.1 µM
TK-10 renal
  GI50: 3.01 µM
  TGI: 9.45 µM
A498 renal
  GI50: 12.9 µM
  TGI: 26 µM
SF-295 CNS
  GI50: 5.9 µM
  TGI: 19.1 µM
786-0 renal
  GI50: 1.81 µM
  TGI: 3.45 µM
RXF 393 renal
  GI50: 1.43 µM
  TGI: 2.87 µM
PC-3 prostate
  GI50: 1.76 µM
  TGI: 3.72 µM
MALME-3M melanoma
  GI50: 1.66 µM
  TGI: 3.27 µM
NCI-H460 lung
  GI50: 2 µM
  TGI: 4.51 µM

## O=c1ccs[nH]1
A549 NSCLC
  TGI: 41.4 µM
NCI/ADR-RES ovarian
  TGI: 50.5 µM
TK-10 renal
  TGI: 32.8 µM
A498 renal
  TGI: 99.6 µM
SF-295 CNS
  TGI: 54.2 µM
786-0 renal
  TGI: 21.4 µM
RXF 393 renal
  TGI: 21 µM
PC-3 prostate
  TGI: 31.4 µM
MALME-3M melanoma
  TGI: 35.5 µM
NCI-H460 lung
  TGI: 34.3 µM

## Cc1ccc2c(-c3ccnc(Nc4ccccc4)n3)c(-c3ccc(F)cc3)nn2n1
A549 NSCLC
  GI50: 5.28 µM
  TGI: > 25 µM
NCI/ADR-RES ovarian
  GI50: 6.64 µM
  TGI: > 25 µM
TK-10 renal
  GI50: 1.62 µM
  TGI: 10.8 µM
A498 renal
  GI50: 4.78 µM
  TGI: 21.5 µM
SF-295 CNS
  GI50: 11.3 µM
  TGI: > 25 µM
786-0 renal
  GI50: 4.84 µM
  TGI: 20.8 µM
RXF 393 renal
  GI50: 3.77 µM
  TGI: > 18.7 µM
PC-3 prostate
  GI50: 9.97 µM
  TGI: > 25 µM
MALME-3M melanoma
  GI50: 13.9 µM
  TGI: > 25 µM
NCI-H460 lung
  GI50: 5.24 µM
  TGI: 15.1 µM

## c1cc(N2CCCN(c3ccc(C4=NCCCN4)cc3)CC2)ccc1C1=NCCCN1
A549 NSCLC
  GI50: 59.6 µM
  TGI: > 100 µM
NCI/ADR-RES ovarian
  GI50: > 100 µM
  TGI: > 100 µM
TK-10 renal
  GI50: 52.5 µM
  TGI: > 100 µM
A498 renal
  GI50: 2.72 µM
  TGI: > 100 µM
SF-295 CNS
  GI50: 51.1 µM
  TGI: > 100 µM
786-0 renal
  GI50: > 100 µM
  TGI: > 100 µM
RXF 393 renal
  GI50: > 100 µM
  TGI: > 100 µM
PC-3 prostate
  GI50: 91.9 µM
  TGI: > 100 µM
MALME-3M melanoma
  GI50: > 100 µM
  TGI: > 100 µM
NCI-H460 lung
  GI50: 36.7 µM
  TGI: > 100 µM
